In general, IC50 refers to the concentration at which inhibition is half-maximal.

Structures are written as SMILES.

The test system of one experiment is NF-κB. Nature of the experiment: NF-κB assay: THP1-NF-κB-LUC cells, LPS-stimulated secreted luciferase. The class given is cell-based. The note with it: THP1-NF-κB-LUC cells, LPS-stimulated; read-out: IC50 (NF-κB assay). How it is done: FIG. 1 contains line plots showing NF-κB activity of exemplified compounds. 25k THP1-NF-κB-LUC cells were dispensed into 384 well plate (per well). Cells were treated with compounds (2 μM and 0.2 μM) for 2 hours before addition of LPS (10 ng/mL) for 18 hours. Secreted luciferase activity were measured using quant-luc reagents (1 bag of luc reagent dilute to 40 mL, use 10 μL per well). Data were normalized to vehicle control and graphed. Structures of selected exemplified compounds are shown.
FIG. 2 contains heat charts showing NF-κB activity of exemplified compounds as a function of concentration. 25k THP1-NF-κB-LUC cells were dispensed into 384 well plate (per well). Cells were treated with compounds (with serial dilution) for 2 hours before addition of LPS (10 ng/ml) for 18 hours. Secreted luciferase activity were measured using quant-luc reagents (1 bag of luc reagent dilute to 40 mL, use 10 μL per well). Structures of selected exemplified compounds are shown.
25k THP1-NF-κB-LUC cells were dispensed into 384 well plate (per well). Cells were treated with compounds with various concentrations for 2 hours before addition of LPS (10 ng/mL) for 18 hours. Secreted luciferase activity were measured using quant-luc reagents (1 bag of luc reagent dilute to 40 mL, use 10 μL per well). Data were normalized to vehicle control and graphed. Compound IC50 towards inhibiting NF-κB were determined through Prism. Similarly, 10k human PBMCs cells were cultured in 384 well plate (per well). Cells were treated with compounds with various concentrations for 2 hours before addition of LPS (10 ng/ml) for 18 hours, and supernatants were collected and assayed for TNF ELISA. Compound IC50 towards inhibiting TNF release were determined through Prism. • Activity: “+”>10 μM, “++”>1 μM and <10 μM, “+++”>0.1 μM and <1 μM, “++++”<0.1 μM.
In the case of `O=C(NCc1cccs1)c1ccc2nc(-c3ccc(F)cc3)c(-c3ccc(F)cc3)nc2c1` [BC18481], the 50% inhibitory concentration (IC50) was less than 100 nM.

Consider `CCOc1ccc(-c2nc3ccc(C(=O)NCCN(C)C)cc3nc2-c2ccc(OCC)cc2)cc1` [BC18477], for which the IC50 lay in the range of 1000 to 10000 nM.

With `CCSc1oc(-c2ccc(F)cc2)nc1S(=O)(=O)c1ccc(Cl)cc1` [BC18573], the IC50 lay in the range of 1000 to 10000 nM.

For `CCC(C)S(=O)(=O)c1oc(-c2ccc(F)cc2)nc1S(=O)(=O)c1ccccc1` (centres unmarked) [BC18553], the concentration for half-maximal inhibition (IC50) is less than 100 nM.

As to `CC(=O)CSc1oc(-c2ccc(F)cc2)nc1S(=O)(=O)c1ccccc1` [BC18503], the IC50 was in the range of 1000 to 10000 nM.

Consider `CC(C)S(=O)(=O)c1oc(-c2ccc(F)cc2)nc1S(=O)(=O)c1ccc(Br)cc1` [BC18511], for which the IC50 is less than 100 nM.

As to `O=C(c1ccc2nc(-c3ccccc3)c(-c3ccccc3)nc2c1)N1CCCC1` [BC18409], the IC50 is less than 100 nM.

As for `Cc1ccc(S(=O)(=O)c2nc(-c3ccc(F)cc3)oc2SCC(C)C)cc1` [BC18528], the IC50 is more than 10000 nM.

As for `CC(C)Sc1oc(-c2ccc(F)cc2)nc1S(=O)(=O)c1ccc(F)cc1` [BC18583], the IC50 was in the range of 1000 to 10000 nM.

For the compound `CCCN1CCN(CCCNC(=O)c2ccc3nc(-c4ccccc4)c(-c4ccccc4)nc3c2)CC1` [BC18418], the IC50 is 100 to 1000 nM.

Turning to `CCN1CCN(CCNC(=O)c2ccc3nc(-c4cccc(C)c4)c(-c4cccc(C)c4)nc3c2)CC1` [BC18452], the IC50 was in the range of 1000 to 10000 nM.

As for `CCCCS(=O)(=O)c1oc(-c2ccc(F)cc2)nc1S(=O)(=O)c1ccccc1` [BC18542], the concentration for half-maximal inhibition (IC50) was less than 100 nM.

In the case of `CCC(C)Sc1oc(-c2ccc(F)cc2)nc1S(=O)(=O)c1ccc(C)cc1` (centres unmarked) [BC18517], the IC50 fell in the range of 1000 to 10000 nM.

`CCCNC(=O)c1ccc2nc(-c3ccccc3)c(-c3ccccc3)nc2c1` [BC18454]: the IC50 lay in the range of 100 to 1000 nM.

Staying with this experiment, now noted: THP1-NF-κB-LUC cells; compounds 2 hours before LPS (10 ng/mL) for 18 hours; secreted luciferase; read-out: IC50 (NF-κB assay).
On to `Cc1cc2c(cc1S(=O)(=O)Nc1c(C)cccc1C(C)C)OCC(=O)N2` [BC181313], for which the half-maximal inhibitory concentration (IC50) was more than 10000 nM.

`COc1ccc(S(=O)(=O)c2cn(CC(=O)Nc3ccc(C)cc3)c3ccc(F)cc3c2=O)cc1` [BC18330]: the IC50 is more than 10000 nM.

On to `Cc1cccc(NS(=O)(=O)c2cc3c(cc2C)N(C)CCO3)c1` [BC181320], for which the IC50 was more than 10000 nM.

As to `CC(=O)c1cccc(NS(=O)(=O)c2cc3c(cc2C)NC(=O)CO3)c1` [BC181303], the 50% inhibitory concentration (IC50) is less than 100 nM.

As for `CCc1cccc(NS(=O)(=O)c2cc3c(cc2C)NC(=O)CO3)c1` [BC181347], the 50% inhibitory concentration (IC50) was in the range of 1000 to 10000 nM.

As for `Cc1cc2c(cc1S(=O)(=O)Nc1ccc(C(C)C)cc1)OCCN2C` [BC181384], the concentration for half-maximal inhibition (IC50) lay within 1000 to 10000 nM.

Regarding `COc1cc2c(=O)c(S(=O)(=O)c3ccccc3)cn(Cc3cccc(Cl)c3)c2cc1OC` [BC18337], the IC50 is more than 10000 nM.

Take `CC(=O)N1CCOc2cc(S(=O)(=O)Nc3c(C)cccc3C)c(C)cc21` [BC181318]: the IC50 was more than 10000 nM.

Regarding `Cc1ccc(NS(=O)(=O)c2cc3c(cc2C)NC(=O)CO3)cc1` [BC181370], the IC50 is less than 100 nM.

In the case of `COc1ccc(Cl)cc1NS(=O)(=O)c1cc2c(cc1C)NC(=O)CO2` [BC181358], the IC50 was more than 10000 nM.

On to `CCN(c1ccccc1)S(=O)(=O)c1cc2c(cc1C)NC(=O)CO2` [BC181345], for which the IC50 was more than 10000 nM.

With `CCc1ccc2c(c1)c(=O)c(S(=O)(=O)c1ccc(C)cc1)cn2C` [BC18326], the concentration for half-maximal inhibition (IC50) was more than 10000 nM.

Take `CCCCN(c1ccccc1)S(=O)(=O)c1cc2c(cc1C)NC(=O)CO2` [BC181304]: the IC50 was more than 10000 nM.

As for `N#Cc1ccc2c(=O)c(S(=O)(=O)c3ccc(F)c(Cl)c3)c[nH]c2c1` [BC18300], the half-inhibitory concentration (IC50) fell in the range of 100 to 1000 nM.

As for `Cc1cc2c(cc1S(=O)(=O)Nc1ccc(F)c(F)c1)OCC(=O)N2` [BC181364], the 50% inhibitory concentration (IC50) fell in the range of 100 to 1000 nM.

Take `CC(=O)N1CCOc2cc(S(=O)(=O)Nc3ccc(C(C)C)cc3)c(C)cc21` [BC181362]: the half-inhibitory concentration (IC50) fell in the range of 1000 to 10000 nM.

`CSc1cccc(NS(=O)(=O)c2cc3c(cc2C)NC(=O)CO3)c1` [BC181314]: the IC50 is less than 100 nM.

The experiment is the same for the next values; noted with them: read-out: IC50 (NF-κB assay).
With `COc1cc(NS(=O)(=O)c2cc3c(cc2C)N(C(C)=O)CCO3)cc(OC)c1` [BC181307], the concentration for half-maximal inhibition (IC50) is more than 10000 nM.

The record behind these values is patent publication US12606528B2, “Methods and materials for inhibiting NF-kB activity” (University of Pittsburgh - Of the Commonwealth System of …, priority 2019, dated 2026).
